Reference: PMC6331789, “Phytochemicals from Ruta graveolens Activate TAS2R Bitter Taste Receptors and TRP Channels Involved in Gustation and Nociception” (Molecules, 2015)
Blank lines part the entries; values can stand above or below the compound they belong to.

Columns and labels:
TRPM8 [1] = settings: cited from earlier work
TAS2R14 [2] = biological target: T1, TAS2R14 (Homo sapiens, UniProt Q9NYV8); experiment: In vitro calcium imaging assay on cloned TAS2R14 in transfected HEK293T cells; assay type: cell-based
T1 construct: expressed in transfected cells; host or cells: HEK293T
T1 sequence (Q9NYV8 1-317): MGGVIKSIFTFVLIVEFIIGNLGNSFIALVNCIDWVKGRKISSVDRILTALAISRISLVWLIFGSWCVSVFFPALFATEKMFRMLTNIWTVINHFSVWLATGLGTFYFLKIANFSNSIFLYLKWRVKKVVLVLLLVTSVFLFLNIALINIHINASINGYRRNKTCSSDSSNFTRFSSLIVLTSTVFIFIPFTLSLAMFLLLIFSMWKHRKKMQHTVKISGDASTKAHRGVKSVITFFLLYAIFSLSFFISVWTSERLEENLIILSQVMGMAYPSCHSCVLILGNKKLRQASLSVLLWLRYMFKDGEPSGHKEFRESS
From the text: (§1) Pure phytochemicals were submitted to in vitro assays with a platform of twenty cloned receptors of the bitter taste TAS2R family and four receptors of the TRP family related to the perception of taste and somatosensory sensations. All experiments have been repeated three times, each time with four replicates. […] For simplicity, only those bitter taste receptors having reproducible positive assay, namely TASR10, 14 and 49, are reported (Table 1).
(§2) For those compounds showing activity on one or more receptor(s), the concentration/response curves were plotted and the EC50 calculated.
(§3) For the biological tests, several compounds were purchased as references from different suppliers (Sigma Aldrich, ChromaDex, Irvine, CA, USA, and Tocris Bioscience, Bristol, UK) and dissolved in assay buffer (130 mM NaCl, 5 mM KCl, 1 mM MgCl2, 2 mM CaCl2, 5 mM NaHCO3 and 20 mM HEPES, pH 7.4) or in a mixture of assay buffer and DMSO, never exceeding a final DMSO concentration of 0.5% (v/v) to avoid toxic effects and possible artefacts on transfected cells.
(§4) All human TAS2R and G15Gi1 cDNAs were produced as reported in Bassoli et al. cDNAs for human TRPA1-M5-M8-V1-V4 were cloned into a pcDNA6 expression vector (Invitrogen-Thermo Fisher, Waltham, MA, USA).
(§5) All experiments were performed using HEK293T cells (ATCC).
(§6) For the bitter platform experiments, cells were cultured, transfected and analyzed as previously described.
(§7) For the bitter platform experiments, data analyses were performed as previously described.
(§8) For the calculation of concentration-response curves, responses were calculated as the difference between maximal and minimal relative fluorescence unit (RFU) values in a selected time window (11–60 s) and were normalized to the basal well fluorescence (Time Point 1, before compound injection) in order to compensate for differences in cell density (∆F/F0). All of the experiments have been repeated three times, each time with four replicates. All of the results are averages of at least four replicates. Raw data are available in Supplementary Material, Figures S3–S6.

TRPM5 = biological target: T2, TRPM5 (Homo sapiens, UniProt Q9NZQ8); experiment: In vitro membrane potential dye assay (FLIPR) on HEK293T cells stably overexpressing TRPM5; assay type: cell-based; settings: concentration/response curve; values with ≥ estimated
T2 construct: expressed in transfected cells
T2 sequence (Q9NZQ8 1-1165): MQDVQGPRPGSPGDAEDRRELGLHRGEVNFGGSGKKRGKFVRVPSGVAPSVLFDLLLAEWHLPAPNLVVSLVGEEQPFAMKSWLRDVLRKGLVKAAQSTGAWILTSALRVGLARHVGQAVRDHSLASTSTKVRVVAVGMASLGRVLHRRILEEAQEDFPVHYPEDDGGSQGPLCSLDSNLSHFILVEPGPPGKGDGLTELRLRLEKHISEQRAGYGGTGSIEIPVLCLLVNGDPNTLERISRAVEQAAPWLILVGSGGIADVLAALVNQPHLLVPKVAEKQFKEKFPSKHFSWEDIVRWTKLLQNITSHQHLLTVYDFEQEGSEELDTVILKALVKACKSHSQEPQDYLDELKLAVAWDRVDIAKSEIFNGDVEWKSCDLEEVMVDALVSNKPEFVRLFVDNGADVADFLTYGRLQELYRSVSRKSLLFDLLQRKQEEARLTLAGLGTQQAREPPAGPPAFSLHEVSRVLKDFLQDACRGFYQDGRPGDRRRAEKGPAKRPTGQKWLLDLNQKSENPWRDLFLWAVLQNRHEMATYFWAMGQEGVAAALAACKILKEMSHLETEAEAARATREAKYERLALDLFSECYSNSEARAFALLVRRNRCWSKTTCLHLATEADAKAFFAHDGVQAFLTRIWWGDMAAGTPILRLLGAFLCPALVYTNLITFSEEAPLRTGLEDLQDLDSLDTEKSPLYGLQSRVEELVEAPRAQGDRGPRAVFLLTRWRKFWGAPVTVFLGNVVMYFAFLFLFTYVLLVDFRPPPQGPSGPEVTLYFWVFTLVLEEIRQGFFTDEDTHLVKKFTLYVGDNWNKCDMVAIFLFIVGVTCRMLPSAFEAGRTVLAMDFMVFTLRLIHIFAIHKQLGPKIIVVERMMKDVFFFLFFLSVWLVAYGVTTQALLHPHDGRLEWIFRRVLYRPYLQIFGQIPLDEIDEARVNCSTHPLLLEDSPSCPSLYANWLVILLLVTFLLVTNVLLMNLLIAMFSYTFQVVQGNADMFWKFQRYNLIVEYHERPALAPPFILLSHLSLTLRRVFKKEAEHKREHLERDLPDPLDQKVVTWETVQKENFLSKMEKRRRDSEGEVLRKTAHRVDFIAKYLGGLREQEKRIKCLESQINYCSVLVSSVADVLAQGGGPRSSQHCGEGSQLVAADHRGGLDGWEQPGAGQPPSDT
From the text: as §1, §2, §3, §4, §5
(§9) For TRP platform experiments, cells were cultured in MEM/EBSS medium (ECB2071L EuroClone, Milan, Italy) plus 10% (v/v) fetal bovine serum (FBS) (26400-044 Gibco, Karlsruhe, Germany) and 1% (v/v) Pen/Strep 10K/10K stock (17-602E Lonza, Basel, Switzerland). Stable cell lines were generated overexpressing each TRP channel, and clones were selected with 500 µg/mL of G418 (ant-gn-5 Invivogen, Karlsruhe, Germany). To analyze TRP receptor responses, cells were plated at a concentration of 20,000 cells/well in 384-well plates (GR-4330 Twin Helix srl, Milan, Italy). Cellular responses were measured 24 h after seeding.
(§10) For TRPM5 experiments, cells were loaded 24 h after seeding with a Membrane Potential Dye (R8034 MDC) solution in assay buffer according to the manufacturer’s instructions and incubated at 37 °C for 1 h before acquisition. All experiments were performed using a fluorometric imaging plate reader (FLIPR^TETRA, Molecular Devices equipped with ICCD Camera from Stanford Photonics, INC, (Palo Alto, CA, USA) and kinetics were visualized with Molecular Devices’ Screenworks 3.0 (Sunnyvale, CA, USA).
as §8

TAS2R14 [3] = settings: cited from earlier work
TAS2R10 [4] = settings: cited from earlier work; for Selective agonism of TAS2R10 (literature): described in the literature, no reference given
TAS2R10 [5] = biological target: T3, TAS2R10 (Homo sapiens, UniProt Q9NYW0); experiment: In vitro calcium imaging assay on cloned TAS2R10 in transfected HEK293T cells; assay type: cell-based; settings: concentration/response curve; values with ≥ estimated, curve did not saturate; read-out: EC50 TAS2R10
T3 construct: expressed in transfected cells; host or cells: HEK293T
T3 sequence (Q9NYW0 1-307): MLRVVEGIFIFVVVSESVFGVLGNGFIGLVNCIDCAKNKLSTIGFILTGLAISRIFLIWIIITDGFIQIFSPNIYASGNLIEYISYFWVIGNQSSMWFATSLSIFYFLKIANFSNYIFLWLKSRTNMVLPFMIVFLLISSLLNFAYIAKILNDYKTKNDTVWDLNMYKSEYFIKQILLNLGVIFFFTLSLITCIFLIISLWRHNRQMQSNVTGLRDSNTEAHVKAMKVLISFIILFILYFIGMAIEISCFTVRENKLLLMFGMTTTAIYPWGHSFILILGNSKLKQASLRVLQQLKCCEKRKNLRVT
From the text: as §1, §2, §3, §4, §5, §6, §7, §8

TAS2R49 [6] = biological target: T4, TAS2R49 (Homo sapiens, UniProt P59543); experiment: In vitro calcium imaging assay on cloned TAS2R49 in transfected HEK293T cells; assay type: cell-based; settings: concentration/response curve; read-out: EC50 TAS2R49
T4 construct: expressed in transfected cells; host or cells: HEK293T
T4 sequence (P59543 1-309): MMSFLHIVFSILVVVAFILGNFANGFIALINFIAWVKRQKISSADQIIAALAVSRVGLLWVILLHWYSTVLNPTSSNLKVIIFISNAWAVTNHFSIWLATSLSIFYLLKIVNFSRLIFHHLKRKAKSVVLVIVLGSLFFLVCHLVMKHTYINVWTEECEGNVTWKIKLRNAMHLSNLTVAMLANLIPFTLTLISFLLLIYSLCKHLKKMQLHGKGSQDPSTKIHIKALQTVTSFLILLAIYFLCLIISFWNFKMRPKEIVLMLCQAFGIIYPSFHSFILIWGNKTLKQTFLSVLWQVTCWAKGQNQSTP
From the text: as §1, §2, §3, §4, §5, §6, §7, §8

TRPM8 [7] = biological target: T5, TRPM8 (Homo sapiens, UniProt Q7Z2W7); experiment: In vitro Fluo8-NW calcium assay (FLIPR) on HEK293T cells stably overexpressing TRPM8; assay type: cell-based; settings: concentration/response curve
T5 construct: expressed in transfected cells
From the text: as §1, §2, §3, §4, §5, §9
For TRPA1-M8-V1-V4 experiments, a solution of Fluo8-NW calcium-sensitive dye (36316 AAT BioQuest, Sunnyvale, CA, USA) was prepared using the assaybuffer and diluting the kit components 1:2 according to the manufacturer’s instructions. Twenty-four hours after seeding, cells were incubated one hour at RT, loaded with 40 µL of Fluo8-NW solution for each well and incubated again for one hour at RT before data acquisition.
as §10, §8

TAS2R49 [8] = system: TAS2R49; design: method as in PMID 20022913; settings: cited from earlier work
bitter taste receptor = system: bitter taste receptor; design: method as in PMID 24117141; settings: cited from earlier work

T5 sequence (Q7Z2W7 whole entry): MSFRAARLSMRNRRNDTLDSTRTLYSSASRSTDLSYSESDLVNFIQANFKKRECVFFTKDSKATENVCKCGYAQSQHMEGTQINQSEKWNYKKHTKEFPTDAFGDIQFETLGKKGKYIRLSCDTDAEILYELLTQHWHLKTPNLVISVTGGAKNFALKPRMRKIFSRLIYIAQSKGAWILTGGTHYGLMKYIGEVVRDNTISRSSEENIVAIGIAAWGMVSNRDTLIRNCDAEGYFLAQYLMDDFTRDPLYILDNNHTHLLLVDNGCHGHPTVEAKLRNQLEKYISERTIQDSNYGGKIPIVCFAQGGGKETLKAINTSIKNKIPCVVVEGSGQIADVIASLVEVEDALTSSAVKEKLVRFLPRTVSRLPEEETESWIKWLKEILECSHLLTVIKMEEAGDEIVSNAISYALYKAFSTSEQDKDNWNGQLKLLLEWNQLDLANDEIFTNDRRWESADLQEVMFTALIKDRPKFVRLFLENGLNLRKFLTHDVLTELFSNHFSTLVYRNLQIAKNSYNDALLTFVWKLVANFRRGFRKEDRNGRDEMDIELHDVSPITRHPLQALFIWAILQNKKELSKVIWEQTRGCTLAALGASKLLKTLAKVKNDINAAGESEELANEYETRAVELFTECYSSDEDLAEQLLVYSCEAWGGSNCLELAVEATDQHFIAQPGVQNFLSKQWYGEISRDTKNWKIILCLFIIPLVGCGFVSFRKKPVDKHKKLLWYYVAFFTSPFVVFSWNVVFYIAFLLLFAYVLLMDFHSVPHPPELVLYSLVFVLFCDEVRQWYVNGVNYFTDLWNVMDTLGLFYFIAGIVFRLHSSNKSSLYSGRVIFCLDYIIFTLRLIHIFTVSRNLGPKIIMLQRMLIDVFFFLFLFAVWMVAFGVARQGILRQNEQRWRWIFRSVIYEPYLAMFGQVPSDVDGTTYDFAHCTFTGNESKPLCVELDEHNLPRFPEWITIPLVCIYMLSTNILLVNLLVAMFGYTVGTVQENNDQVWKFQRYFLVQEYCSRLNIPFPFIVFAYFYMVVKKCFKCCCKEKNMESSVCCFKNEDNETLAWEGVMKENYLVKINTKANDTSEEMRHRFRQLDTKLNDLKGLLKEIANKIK

Structure (SMILES): CC[C@H]1CC2CN3CCc4c([nH]c5ccc(OC)cc45)[C@](C(=O)OC)(C2)[C@H]13 (stereo in doubt) [voacangine]
TRPM8 inhibition (literature) (TRPM8 [1]): potent TRPM8 inhibitor

Structure (SMILES): COc1cccc2c1cc([N+](=O)[O-])c1c(C(=O)O)cc3c(c12)OCO3 [Aristolochic Acid, reference compound]
EC50 (TAS2R14 [2]): 2.3 µM

EC50 (TRPM5): 4.3 µM
Structure (SMILES): C[N+](C)(C)CCOC(N)=O [Carbachol, reference compound]

Structure (SMILES): O=c1ccc2ccccc2o1 [Coumarin]
Agonism of TAS2R14 (literature) (TAS2R14 [3]): known agonist
Agonism of TAS2R10 (literature) (TAS2R10 [4]): known agonist

EC50 (TAS2R10 [5]): 8.3 µM
Structure (SMILES): CC[N+](CC)(CC(=O)Nc1c(C)cccc1C)Cc1ccccc1 [Denatonium Benzoate, reference compound]

EC50 (TAS2R49 [6]): 6 µM
Structure (SMILES): Cc1nc2sccn2c(=O)c1CCN1CCC(=C(c2ccc(F)cc2)c2ccc(F)cc2)CC1 [Ritanserin, reference compound]

EC50 (TRPM8 [7]): 4 µM
Structure (SMILES): CCNC(=O)C1CC(C)CCC1C(C)C (stereo not drawn) [WS3, reference compound]

Structure (SMILES): O=C(O)c1cc(=O)c2c(OCC(O)COc3cccc4oc(C(=O)O)cc(=O)c34)cccc2o1 [cromolyn]
Agonism of TAS2R49 (literature) (TAS2R49 [8]): non-selective agonists

Structure (SMILES): CC(=O)OC(C)(C)/C=C/C(=O)[C@](C)(O)[C@H]1[C@H](O)C[C@@]2(C)[C@@H]3CC=C4[C@@H](C=C(O)C(=O)C4(C)C)[C@]3(C)C(=O)C[C@]12C [cucurbitacin E]
Selective agonism of TAS2R10 (literature) (TAS2R10 [4]): selective agonists

Structure (SMILES): OC(CCCN1CCCCC1)(c1ccccc1)c1ccccc1 [diphenidol]
Agonism of TAS2R49 (literature) (TAS2R49 [8]): non-selective agonists

Structure (SMILES): CC[C@H]1OC(=O)[C@H](C)[C@@H](O[C@H]2C[C@@](C)(OC)[C@@H](O)[C@H](C)O2)[C@H](C)[C@@H](O[C@@H]2O[C@H](C)C[C@H](N(C)C)[C@H]2O)[C@](C)(O)C[C@@H](C)C(=O)[C@H](C)[C@@H](O)[C@]1(C)O [erythromycin]
Selective agonism of TAS2R10 (literature) (TAS2R10 [4]): selective agonists

Structure (SMILES): O=c1cc(-c2ccc(O)c(O)c2)oc2cc(O)cc(O)c12 [luteolin]
Bitter taste receptor activation of flavonoids (literature) (bitter taste receptor): active

Structure (SMILES): COc1ccc2c(c1OC)C(=O)O[C@@H]2[C@H]1c2c(cc3c(c2OC)OCO3)CCN1C [noscapine]
Selective agonism of TAS2R14 (literature) (TAS2R14 [3]; described in the literature, no reference given): selective agonist

Structure (SMILES): O=c1c(O)c(-c2ccc(O)c(O)c2)oc2cc(O)cc(O)c12 [quercetin]
Bitter taste receptor activation of flavonoids (literature) (bitter taste receptor): still active, but with lower efficacy
